# Laboratory results: patent US8759333B2, “Di-azetidinyl diamide as monoacylglycerol lipase inhibitors” (Janssen Pharmaceutica, NV, priority 2010, dated 2014)
# Legend:
# MGL = target: T1, MGL (Rattus norvegicus, UniProt Q8R431); experiment: 2-AG Accumulation Assay in rat brain homogenate; type: biochemical; conditions: percent of vehicle; for activity at 1 µM: compound @1 µM, read-out: Rat Brain 2AG % VehCntrl (%) @1 µM; for activity at 10 µM: compound @10 µM, read-out: Rat Brain 2AG % VehCntrl (%) @10 µM
# T1 construct: one g rat brain was homogenized using a Polytron homogenizer; from tissue; host or cells: rat brain homogenate
# T1 sequence (Q8R431 1-303): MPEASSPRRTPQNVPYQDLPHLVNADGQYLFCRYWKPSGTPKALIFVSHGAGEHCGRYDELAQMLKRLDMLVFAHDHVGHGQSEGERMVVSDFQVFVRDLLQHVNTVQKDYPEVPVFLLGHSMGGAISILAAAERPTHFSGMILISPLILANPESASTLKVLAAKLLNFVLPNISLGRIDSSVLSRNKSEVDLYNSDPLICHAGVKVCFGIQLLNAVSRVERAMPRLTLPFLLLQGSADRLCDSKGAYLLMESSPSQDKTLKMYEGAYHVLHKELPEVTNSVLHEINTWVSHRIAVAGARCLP
# mutant MGL = target: T2, mutant MGL (Homo sapiens, UniProt Q99685, L169S/L176S); experiment: MGL ThermoFluor Assay - Mutant; type: binding; conditions: 0.07 mg/ml mutant MGL, 100 μM ANS, pH 7.0
# T2 construct: purified mutant MGL (mut-MGLL 11-313 L179S L186S)
# T2 sequence (Q99685 1-303 L169S/L176S): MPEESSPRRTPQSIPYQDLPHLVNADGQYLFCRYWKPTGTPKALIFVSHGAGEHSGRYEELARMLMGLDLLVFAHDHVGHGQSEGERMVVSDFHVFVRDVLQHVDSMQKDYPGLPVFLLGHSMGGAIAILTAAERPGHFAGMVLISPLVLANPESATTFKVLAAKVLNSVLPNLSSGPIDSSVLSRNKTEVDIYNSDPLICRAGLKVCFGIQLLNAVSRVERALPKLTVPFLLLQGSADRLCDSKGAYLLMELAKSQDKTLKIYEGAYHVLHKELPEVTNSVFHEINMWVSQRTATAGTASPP
# Procedure: The ThermoFluor (TF) assay is a 384-well plate-based binding assay that measures thermal stability of proteins^1,2. The experiments were carried out using instruments available from Johnson & Johnson Pharmaceutical Research & Development, LLC. TF dye used in all experiments was 1,8-ANS (Invitrogen: A-47). Final TF assay conditions used for MGL studies were 0.07 mg/ml of mutant MGL, 100 μM ANS, 200 mM NaCl, 0.001% Tween-20 in 50 mM PIPES (pH=7.0).
# Screening compound plates contained 100% DMSO compound solutions at a single concentration. […] Columns 12 and 24 were used as DMSO reference and contained no compound. […] Following compound dispension, protein and dye solutions were added to achieve the final assay volume of 3 μL.
# Bar-coded assay plates were robotically loaded onto a thermostatically controlled PCR-type thermal block and then heated from 40 to 90° C. degrees at a ramp-rate of 1° C./min for all experiments. Fluorescence was measured by continuous illumination with UV light (Hamamatsu LC6), supplied via fiber optics and filtered through a band-pass filter (380-400 nm; >60D cutoff). Fluorescence emission of the entire 384-well plate was detected by measuring light intensity using a CCD camera (Sensys, Roper Scientific) filtered to detect 500±25 nm, resulting in simultaneous and independent readings of all 384 wells. A single image with 20-sec exposure time was collected at each temperature, and the sum of the pixel intensity in a given area of the assay plate was recorded vs temperature and fit to standard equations to yield the Tm^1. • 1.
# The Kd values for certain compounds of Formula (I) were determined from a fit of the equation to the concentration-response plot of the fractional activity as a function of […]. For some experiments, quantitative NMR spectroscopy (qNMR) was used to measure concentration of the initial 100% DMSO compound solutions and, using the same fitting method, qKd values were determined.
# [1] = target: T3, mutant MGL (mut-MGLL 11-313 L179S L186S) (Homo sapiens, UniProt Q99685, L169S/L176S); experiment: MGL Enzyme Activity Assay, purified mutant MGL, 4MU-B substrate; type: biochemical; conditions: mutant MGL 5 nM, 4MU-B 10 μM, 37° C.; read-out: MGL mutant inh IC50
# T3 construct: purified mutant MGL (mut-MGLL 11-313 L179S L186S)
# T3 sequence (Q99685 1-303 L169S/L176S): T2 sequence (Q99685 1-303 L169S/L176S)
# Procedure: All rate-based assays were performed in black 384-well polypropylene PCR microplates (Abgene) in a total volume of 30 μL. Substrate 4-methylumbelliferyl butyrate (4MU-B; Sigma) and either purified mutant MGL (mut-MGLL 11-313 L179S L186S) or purified wild type MGL (wt-MGLL 6H-11-313) were diluted separately into 20 mM PIPES buffer (pH=7.0), containing 150 mM NaCl and 0.001% Tween 20. Compounds of Formula (I), including Formulas I(a), I(b), and I(c), were pre-dispensed (50 nL) into the assay plate using a Cartesian Hummingbird prior to adding 4MU-B (25 μL of 1.2× solution to a final concentration of 10 μM) followed by enzyme (5 μL of a 6× solution to a final concentration of 5 nM) to initiate the reaction. Final compound concentrations ranged from 17 to 0.0003 μM. The fluorescence change due to 4MU-B cleavage was monitored with excitation and emission wavelengths of 335 and 440 nm, respectively, and a bandwidth of 10 nm (Safire^2, Tecan) at 37° C. for 5 min.
# The IC50 values for the following compounds were determined using Microsoft Office Excel from a fit of the equation to the concentration-response plot of the fractional activity as a function of inhibitor concentration.
SMILES,activity at 1 µM (MGL),Kd (mutant MGL),IC50 [1],activity at 10 µM (MGL)
"O=C(NC1CN(C2CN(C(=O)c3ccc4c(ccn4S(=O)(=O)c4ccccc4)c3)C2)C1)c1nccs1 [Cpd 3, N-(1′-{[1-(Phenylsulfonyl)-1H-indol-5-yl]carbonyl}-1,3′-biazetidin-3-yl)-1,3-thiazole-2-carboxamide]",271%,33.3 nM,6 nM,
"O=C(NC1CN(C2CN(C(=O)c3cc4c(C(F)(F)F)cccc4s3)C2)C1)c1nccs1 [Cpd 8, N-(1′-{[4-(Trifluoromethyl)-1-benzothiophen-2-yl]carbonyl}-1,3′-biazetidin-3-yl)-1,3-thiazole-2-carboxamide]",127%,128 nM,12 nM,
"O=C(NC1CN(C2CN(C(=O)c3ccc4c(ccn4-c4ccc(F)cc4)c3)C2)C1)c1cscn1 [Cpd 11, N-(1′-{[1-(4-Fluorophenyl)-1H-indol-5-yl]carbonyl}-1,3′-biazetidin-3-yl)-1,3-thiazole-4-carboxamide]",,44 nM,15 nM,220%
"CS(=O)(=O)c1cccc(-c2ccc(C(=O)N3CC(N4CC(NC(=O)c5nccs5)C4)C3)cc2)c1 [Cpd 18, N-(1′-{[3′-(Methylsulfonyl)biphenyl-4-yl]carbonyl}-1,3′-biazetidin-3-yl)-1,3-thiazole-2-carboxamide]",218%,215 nM,59 nM,
"O=C(NC1CN(C2CN(C(=O)c3ccc4ccn(-c5ccccc5)c4c3)C2)C1)c1nccs1 [Cpd 27, N-{1′-[(1-Phenyl-1H-indol-6-yl)carbonyl]-1,3′-biazetidin-3-yl}-1,3-thiazole-2-carboxamide]",,446 nM,167 nM,
"O=C(NC1CN(C2CN(C(=O)c3ccc(Cc4ccccc4)cc3)C2)C1)c1ccccc1 [Cpd 31, N-{1′-[(4-Benzylphenyl)carbonyl]-1,3′-biazetidin-3-yl}benzamide]",,154 nM,270 nM,
"O=C(NC1CN(C2CN(C(=O)c3ccc(-c4ccccc4)cc3)C2)C1)c1ccccc1 [Cpd 39, N-[1′-(Biphenyl-4-ylcarbonyl)-1,3′-biazetidin-3-yl]benzamide]",,222 nM,604 nM,
"O=C(NC1CN(C2CN(C(=O)c3ccc(Br)cc3)C2)C1)c1nccs1 [Cpd 43, N-{1′-[(4-Bromophenyl)carbonyl]-1,3′-biazetidin-3-yl}-1,3-thiazole-2-carboxamide]",,3330 nM,1680 nM,
"O=C(NC1CN(C2CN(C(=O)c3ccc(Oc4ccccc4)cc3)C2)C1)c1ccccc1 [Cpd 45, N-{1′-[(4-Phenoxyphenyl)carbonyl]-1,3′-biazetidin-3-yl}benzamide]",,833 nM,2780 nM,
"O=C(NC1CN(C2CN(C(=O)c3ccc4nc(Br)sc4c3)C2)C1)c1cscn1 [Cpd 46, N-{1′-[(2-Bromo-1,3-benzothiazol-6-yl)carbonyl]-1,3′-biazetidin-3-yl}-1,3-thiazole-4-carboxamide]",,3400 nM,3750 nM,
"O=C(NC1CN(C2CN(C(=O)c3nc4cc(C(F)(F)F)ccc4s3)C2)C1)c1nccs1 [Cpd 47, N-(1′-{[5-(Trifluoromethyl)-1,3-benzothiazol-2-yl]carbonyl}-1,3′-biazetidin-3-yl)-1,3-thiazole-2-carboxamide]",,2500 nM,4750 nM,
"O=C(c1ccc2c(ccn2S(=O)(=O)c2ccccc2)c1)N1CC(N2CC(N3Cc4ccccc4C3=O)C2)C1 [Cpd 71, 2-(1′-{[1-(Phenylsulfonyl)-1H-indol-5-yl]carbonyl}-1,3′-biazetidin-3-yl)-2,3-dihydro-1H-isoindol-1-one]",,50 nM,8 nM,400%
"O=C(c1sc2cc(Br)ccc2c1Cl)N1CC(N2CC(N3Cc4ccccc4C3=O)C2)C1 [Cpd 75, 2-{1′-[(6-Bromo-3-chloro-1-benzothiophen-2-yl)carbonyl]-1,3′-biazetidin-3-yl}-2,3-dihydro-1H-isoindol-1-one]",,7 nM,15 nM,
"O=C(c1ccc2nc(-c3cccc(C(F)(F)F)c3)oc2c1)N1CC(N2CC(N3Cc4ccccc4C3=O)C2)C1 [Cpd 78, 2-[1′-({2-[3-(Trifluoromethyl)phenyl]-1,3-benzoxazol-6-yl}carbonyl)-1,3′-biazetidin-3-yl]-2,3-dihydro-1H-isoindol-1-one]",,40 nM,17 nM,
"O=C(c1ccc2c(Br)cccc2c1)N1CC(N2CC(N3Cc4ccccc4C3=O)C2)C1 [Cpd 83, 2-{1′-[(5-Bromonaphthalen-2-yl)carbonyl]-1,3′-biazetidin-3-yl}-2,3-dihydro-1H-isoindol-1-one]",,,23 nM,416%
"O=C(c1ccc(Cc2cccc(C(F)(F)F)c2)cc1)N1CC(N2CC(N3Cc4ccccc4C3=O)C2)C1 [Cpd 86, 2-[1′-({4-[3-(Trifluoromethyl)benzyl]phenyl}carbonyl)-1,3′-biazetidin-3-yl]-2,3-dihydro-1H-isoindol-1-one]",,,50 nM,447%
"O=C(c1ccc2nc(-c3ccc(Cl)cc3)oc2c1)N1CC(N2CC(N3Cc4ccccc4C3=O)C2)C1 [Cpd 88, 2-(1′-{[2-(4-Chlorophenyl)-1,3-benzoxazol-6-yl]carbonyl}-1,3′-biazetidin-3-yl)-2,3-dihydro-1H-isoindol-1-one]",,,96 nM,294%
"O=C(c1ccc2c(ccn2-c2ccccc2C(F)(F)F)c1)N1CC(N2CC(N3Cc4ccccc4C3=O)C2)C1 [Cpd 89, 2-[1′-({1-[2-(Trifluoromethyl)phenyl]-1H-indol-5-yl}carbonyl)-1,3′-biazetidin-3-yl]-2,3-dihydro-1H-isoindol-1-one]",,,98 nM,663%
"O=C(c1ccc(-c2ccccc2)cc1)N1CC(N2CC(N3Cc4ccccc4C3=O)C2)C1 [Cpd 92, 2-[1′-(Biphenyl-4-ylcarbonyl)-1,3′-biazetidin-3-yl]-2,3-dihydro-1H-isoindol-1-one]",,100 nM,242 nM,
"O=C(c1cc2cc(Br)ccc2s1)N1CC(N2CC(N3Cc4ccccc4C3=O)C2)C1 [Cpd 93, 2-{1′-[(5-Bromo-1-benzothiophen-2-yl)carbonyl]-1,3′-biazetidin-3-yl}-2,3-dihydro-1H-isoindol-1-one]",,76.9 nM,360 nM,
"O=C(c1ccc(Cc2ccccc2)cc1)N1CC(N2CC(N3Cc4ccccc4C3=O)C2)C1 [Cpd 94, 2-{1′-[(4-Benzylphenyl)carbonyl]-1,3′-biazetidin-3-yl}-2,3-dihydro-1H-isoindol-1-one]",,91 nM,412 nM,
